Data taken from patent US11130769B2 (Prelude Therapeutics Incorporated, priority 2018, dated 2021).

How the values were obtained:
[1] = molecular target: MCL-1 (Homo sapiens (Human), UniProt Q07820); assay: Cell free Mcl-1:Bim affinity assay (fluorescence polarization competition); type: binding; conditions: 15 nM MCL-1, 5 nM FITC-Bim, 1 hour at room temperature; class symbols; read-out: BIM_Ki
Experimental: The binding affinity of each compound was measured via a fluorescence polarization competition assay, in which the compound competes for the same binding site with the ligand, and thus leads to a dose-dependent anisotropy reduction. The tracer ligand utilized was a fluorescein isothiocyanate labelled peptide (FITC-[…]) derived from Bim (GenScript).
The assay was carried out in black half-area 96-well NBS plate (Corning), containing 15 nM of MCL-1 (BPS Bioscience), 5 nM of FITC-Bim and 3-fold serial diluted test compounds in a total volume of 50 μL of assay buffer (20 mM HEPES, 50 mM NaCl, 0.002% Tween 20, 1 mM TCEP, and 1% DMSO). The reaction plate was incubated for 1 hour at room temperature. The change of anisotropy is measured with an Envision multimode plate reader (PerkinElmer) at emission wavelength 535 nm. Fluorescence polarization was calculated in mP unit and the percentage inhibition was calculated by % inhibition=100×(mPDMSO−mP)/(mPDMSO−mPPC), in which mPDMSO is the DMSO control, and mPpc is the positive control. IC50 values were determined from a 10-point dose response curve by fitting the percent inhibition against compound concentration using the GraphPad Prism software. The inhibition constant Ki was subsequently calculated according to the Nikolovska-Coleska's equation (Anal. Biochem., 2004, 332, 261),
[formula] • where [I]50 is the concentration of the free inhibitor at 50% inhibition, [L]50 is the concentration of the free labeled ligand at 50% inhibition, [P]0 is the concentration of the free protein at 0% inhibition, and Kd is the dissociation constant of the protein-ligand complex. See Table F. Caspase 3/7 Activity Assay

[2] = tested on: H929 cells; assay: Cell viability assay (H929 10 FBS); type: cell-based; conditions: Homo sapiens, NCI-H929, 24 hours, read-out: H929_10FBS IC50
Experimental: Cell Viability Assay (H929 10 FBS)
Dispense 10 μL aliquot of prepared H929 cells (1:1 ratio of cells:Trypan Blue (#1450013, Bio-Rad)) onto cell counting slide (#145-0011, Bio-Rad) and obtain cell density and cell viability using cell counter (TC20, Bio-Rad). Remove appropriate volume of resuspended cells from culture flask to accommodate 4000 cells/well @ 10 μL/well. Transfer H929 cells to 50 mL conical (#430290, Corning). Spin down at 1000 rpm for 5 min using tabletop centrifuge (SPINCHRON 15, Beckman). Discard supernatant and resuspend cell pellet in modified RPMI 1640 (#10-040-CV, Corning) cell culture media containing 10% FBS (F2422-500 ML, Sigma), sodium pyruvate (100 mM) (#25-000-CL, Corning), HEPES buffer (1 M) (#25-060-CL, Corning) and glucose (200 g/L) (A24940-01, Gibco) to a cell density of 400,000 cells/mL. Dispense 10 μL of resuspended H929 cells per well in 384-well small volume TC treated plate (#784080, Greiner Bio-one) using standard cassette (#50950372, Thermo Scientific) on Multi-drop Combi (#5840310, Thermo Scientific) in laminar flow cabinet. Dispense compounds onto plates using digital liquid dispenser (D300E, Tecan). Incubate plates in humidified tissue culture incubator @ 37° C. for 24 hours. Add 10 μL of prepared CellTiTer-Glo® detection buffer (G7570, Promega) or ATPlite 1 Step detection reagent (#6016731, Perkin Elmer) to each well of 384-well plate using small tube cassette (#24073295, Thermo Scientific) on Combi multi drop, incubate @ RT for 30-60 min. Read plates with microplate reader (PheraStar, BMG Labtech) using 384 well luminescence mode.

MCL-1, sequence (Q07820 whole entry): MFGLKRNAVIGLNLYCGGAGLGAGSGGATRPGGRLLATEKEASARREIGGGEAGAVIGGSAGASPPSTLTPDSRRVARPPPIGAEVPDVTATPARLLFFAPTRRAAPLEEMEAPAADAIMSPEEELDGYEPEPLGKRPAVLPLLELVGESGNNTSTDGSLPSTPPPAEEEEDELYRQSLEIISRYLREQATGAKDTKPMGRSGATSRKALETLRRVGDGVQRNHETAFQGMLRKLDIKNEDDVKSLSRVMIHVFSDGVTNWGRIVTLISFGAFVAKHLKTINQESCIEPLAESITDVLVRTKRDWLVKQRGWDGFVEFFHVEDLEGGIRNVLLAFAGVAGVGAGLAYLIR

Row | Structure (SMILES) | Ki [1] [nM] | IC50 [2] [nM]
1 | CC1(C)OC/C=C/[C@H](O)[C@@H]2CC[C@H]2CN2C[C@@]3(CCCc4cc(Cl)ccc43)COc3ccc(cc32)S(=O)(=O)NC1=O [Example 32, (3R,6R,7S,8E,22S)-6′-Chloro-7-hydroxy-12,12-dimethyl-15,15-dioxo-spiro[11,20-dioxa-15-thia-1,14-diazatetracyclo[14.7.2.03,6.019,24]pentacosa-8,16,18,24-tetraene-22,1′-tetralin]-13-one] | < 1 | < 500
2 | CC1(C)OC/C=C\[C@H](O)[C@@H]2CC[C@H]2CN2C[C@@]3(CCCc4cc(Cl)ccc43)COc3ccc(cc32)S(=O)(=O)NC1=O [Example 33, (3R,6R,7S,8Z,22S)-6′-Chloro-7-hydroxy-12,12-dimethyl-15,15-dioxo-spiro[11,20-dioxa-15-thia-1,14-diazatetracyclo[14.7.2.03,6.019,24]pentacosa-8,16,18,24-tetraene-22,1′-tetralin]-13-one] | < 1 | < 500
3 | CN(C)C(=O)O[C@H]1/C=C\COC(C)(C)C(=O)NS(=O)(=O)c2ccc3c(c2)N(C[C@@H]2CC[C@H]21)C[C@@]1(CCCc2cc(Cl)ccc21)CO3 [Example 35, [(3R,6R,7S,8Z,22S)-6′-Chloro-12,12-dimethyl-13,15,15-trioxo-spiro[11,20-dioxa-15-thia-1,14-diazatetracyclo[14.7.2.03,6.019,24]pentacosa-8,16,18,24-tetraene-22,1′-tetralin]-7-yl] N,N-dimethylcarbamate] | 1 to 100 | > 1000
4 | CN(C)C(=O)O[C@H]1/C=C/COC2(CC2)C(=O)NS(=O)(=O)c2ccc3c(c2)N(C[C@@H]2CC[C@H]21)C[C@@]1(CCCc2cc(Cl)ccc21)CO3 [Example 41, [(3R,6R,7S,8E,22S)-6′-Chloro-12,12-ethylene-13,15,15-trioxo-spiro[11,20-dioxa-15-thia-1,14-diazatetracyclo[14.7.2.03,6.019,24]pentacosa-8,16,18,24-tetraene-22,1′-tetralin]-7-yl] N,N-dimethylcarbamate] | < 1 | < 500
5 | CO[C@@H]1/C=C/CN(C)C(C)(C)C(=O)NS(=O)(=O)c2ccc3c(c2)N(C[C@@H]2CC[C@H]21)C[C@@]1(CCCc2cc(Cl)ccc21)CO3 [Example 42, (3R,6R,7R,8E,22S)-6′-Chloro-7-methoxy-11,12,12-trimethyl-15,15-dioxo-spiro[20-oxa-15-thia-1,11,14-triazatetracyclo[14.7.2.03,6.019,24]pentacosa-8,16,18,24-tetraene-22,1′-tetralin]-13-one] | 1 to 100 | < 500
6 | CN1C/C=C/[C@H](O)[C@@H]2CC[C@H]2CN2C[C@@]3(CCCc4cc(Cl)ccc43)COc3ccc(cc32)S(=O)(=O)NC(=O)C1(C)C [Example 43, (3R,6R,7S,8E,22S)-6′-Chloro-7-hydroxy-11,12,12-trimethyl-15,15-dioxo-spiro[20-oxa-15-thia-1,11,14-triazatetracyclo[14.7.2.03,6.019,24]pentacosa-8,16,18,24-tetraene-22,1′-tetralin]-13-one] | 1 to 100 | > 1000
7 | CN(C)C(=O)O[C@H]1/C=C/CN(C)C(C)(C)C(=O)NS(=O)(=O)c2ccc3c(c2)N(C[C@@H]2CC[C@H]21)C[C@@]1(CCCc2cc(Cl)ccc21)CO3 [Example 44, [(3R,6R,7S,8E,22S)-6′-chloro-11,12,12-trimethyl-13,15,15-trioxo-spiro[20-oxa-15-thia-1,11,14-triazatetracyclo[14.7.2.03,6.019,24]pentacosa-8,16,18,24-tetraene-22,1′-tetralin]-7-yl] N,N-dimethylcarbamate] | < 1 | < 500

The remaining lines, values ahead:

Row | Ki [1] [nM] | IC50 [2] [nM] | Structure (SMILES)
8 | < 1 | < 500 | CN(C)C(=O)O[C@H]1/C=C/COC(C)(C)C(=O)NS(=O)(=O)c2ccc3c(c2)N(C[C@@H]2CC[C@H]21)C[C@@]1(CCCc2cc(Cl)ccc21)CO3 [Example 34, [(3R,6R,7S,8E,22S)-6′-Chloro-12,12-dimethyl-3,5,5-trioxo-spiro[11,20-dioxa-15-thia-1,14-diazatetracyclo[14.7.2.03,6.019,24]pentacosa-8,16,18,24-tetraene-22,1′-tetralin]-7-yl] N,N-dimethylcarbamate]
9 | < 1 | < 1000 | CC1(C)OC/C=C/[C@@H](O)[C@@H]2CC[C@H]2CN2C[C@@]3(CCCc4cc(Cl)ccc43)COc3ccc(cc32)S(=O)(=O)NC1=O [Example 36, (3R,6R,7R,8E,22S)-6′-Chloro-7-hydroxy-12,12-dimethyl-15,15-dioxo-spiro[11,20-dioxa-15-thia-1,14-diazatetracyclo[14.7.2.03,6.019,24]pentacosa-8,16,18,24-tetraene-22,1′-tetralin]-13-one]
10 | < 1 | < 500 | CN(C)C(=O)O[C@@H]1/C=C/COC(C)(C)C(=O)NS(=O)(=O)c2ccc3c(c2)N(C[C@@H]2CC[C@H]21)C[C@@]1(CCCc2cc(Cl)ccc21)CO3 [Example 37, [(3R,6R,7R,8E,22S)-6′-Chloro-12,12-dimethyl-13,15,15-trioxo-spiro[11,20-dioxa-15-thia-1,14-diazatetracyclo[14.7.2.03,6.019,24]pentacosa-8,16,18,24-tetraene-22,1′-tetralin]-7-yl] N,N-dimethylcarbamate]
11 | < 1 | < 500 | O=C1NS(=O)(=O)c2ccc3c(c2)N(C[C@@H]2CC[C@H]2[C@H](O)/C=C/COC12CC2)C[C@@]1(CCCc2cc(Cl)ccc21)CO3 [Example 38, (3R,6R,7R,8E,22S)-6′-Chloro-7-hydroxy-12,12-ethylene-15,15-dioxo-spiro[11,20-dioxa-15-thia-1,14-diazatetracyclo[14.7.2.03,6.019,24]pentacosa[8,16(25),17,19(24)]tetraene-22,1′-tetralin]-13-one]
12 | < 1 | < 1000 | CN(C)C(=O)O[C@@H]1/C=C/COC2(CC2)C(=O)NS(=O)(=O)c2ccc3c(c2)N(C[C@@H]2CC[C@H]21)C[C@@]1(CCCc2cc(Cl)ccc21)CO3 [Example 39, [(3R,6R,7R,8E,22S)-6′-Chloro-12,12-ethylene-13,15,15-trioxo-spiro[11,20-dioxa-15-thia-1,14-diazatetracyclo[14.7.2.03,6.019,24]pentacosa-8,16,18,24-tetraene-22,1′-tetralin]-7-yl] N,N-dimethylcarbamate]
13 | < 1 | < 500 | O=C1NS(=O)(=O)c2ccc3c(c2)N(C[C@@H]2CC[C@H]2[C@@H](O)/C=C/COC12CC2)C[C@@]1(CCCc2cc(Cl)ccc21)CO3 [Example 40, (3R,6R,7S,8E,22S)-6′-Chloro-7-hydroxy-12,12-ethylene-15,15-dioxo-spiro[11,20-dioxa-15-thia-1,14-diazatetracyclo[14.7.2.03,6.019,24]pentacosa[8,16(25),17,19(24)]tetraene-22,1′-tetralin]-13-one]
14 | < 1 | < 500 | [2H]C([2H])([2H])N1C/C=C/[C@H](OC(=O)N(C)C)[C@@H]2CC[C@H]2CN2C[C@@]3(CCCc4cc(Cl)ccc43)COc3ccc(cc32)S(=O)(=O)NC(=O)C1(C)C [Example 45, [(3R,6R,7S,8E,22S)-6′-Chloro-12,12-dimethyl-13,15,15-trioxo-11-(trideuteriomethyl)spiro[20-oxa-15-thia-1,11,14-triazatetracyclo[14.7.2.03,6.019,24]pentacosa-8,16,18,24-tetraene-22,1′-tetralin]-7-yl] N,N-dimethylcarbamate]
